Our source for the MIC and IC50 values is ChEMBL document CHEMBL2375330, “Synthesis of pyrazole encompassing 2-pyridone derivatives as antibacterial agents” (Bioorg Med Chem Lett, 2013).

In one test the test system is Pseudomonas aeruginosa. Kind of test: microbe, parasite or virus in culture. The class given is functional. The following applies: MTCC 1688.
For another test, the system named is NIH3T3. Kind of test: Cytotoxicity against mouse NIH/3T3 cells by MTT assay. Format: cell-based. (In general: Tetrazolium dyes change colour on reduction, which living cells bring about.)
The test system of another test is HeLa. The test is described as follows: Cytotoxicity against human HeLa cells by MTT assay. Format: cell-based.
The subject of a further test is Staphylococcus aureus. The test is described as follows: Antibacterial activity against Staphylococcus aureus MTCC 96 by broth dilution method. The class given is functional.
Another test has as its system Streptococcus pyogenes. Kind of test: microbe, parasite or virus in culture. The following applies: MTCC 442. The class given is functional.
Another test concerns Escherichia coli. The test is described as follows: microbe, parasite or virus in culture. The class given is functional. The following applies: MTCC 443.

Broadly, the IC50 is the point on the concentration scale where inhibition reaches its midpoint. A low value points to greater potency in that assay.

Structures are written as SMILES. Converted amounts (≈) assume the structure as drawn.

Description for Escherichia coli: Antibacterial activity against Escherichia coli MTCC 443 by broth dilution method
Description for Pseudomonas aeruginosa: Antibacterial activity against Pseudomonas aeruginosa MTCC 1688 by broth dilution method
Description for Streptococcus pyogenes: Antibacterial activity against Streptococcus pyogenes MTCC 442 by broth dilution method

On to `N#Cc1c(-c2cccc([N+](=O)[O-])c2)c(C#N)c(=O)n(/N=C/c2cn(-c3ccccc3)nc2-c2ccccc2)c1N`, for which the MIC against Pseudomonas aeruginosa was 100 µg/mL (≈ 190 µM); in the test on Staphylococcus aureus, 250 µg/mL (≈ 475 µM); against Streptococcus pyogenes, 50 µg/mL (≈ 95 µM); in the test with Escherichia coli it was 100 µg/mL (≈ 190 µM). In addition, the concentration for half-maximal inhibition (IC50) is 124 µg/mL (≈ 236 µM) in the test on NIH3T3 and over 200 µg/mL in the test with HeLa.
For the compound `N#Cc1c(-c2ccc([N+](=O)[O-])cc2)c(C#N)c(=O)n(/N=C/c2cn(-c3ccccc3)nc2-c2ccccc2)c1N`, the MIC turned out to be 25 µg/mL (≈ 47.5 µM) against Pseudomonas aeruginosa, 50 µg/mL (≈ 95 µM) with Staphylococcus aureus, 12.5 µg/mL (≈ 23.7 µM) with Streptococcus pyogenes and 12.5 µg/mL (≈ 23.7 µM) against Escherichia coli. In addition, the IC50 is 84 µg/mL (≈ 160 µM) with NIH3T3 and over 200 µg/mL in the test on HeLa.
`N#Cc1c(-c2ccccc2Br)c(C#N)c(=O)n(/N=C/c2cn(-c3ccccc3)nc2-c2ccccc2)c1N`: the MIC against Pseudomonas aeruginosa is 250 µg/mL (≈ 446 µM); against Staphylococcus aureus it was 12.5 µg/mL (≈ 22.3 µM); against Streptococcus pyogenes, 250 µg/mL (≈ 446 µM); in the test on Escherichia coli, 100 µg/mL (≈ 178 µM). In addition, the IC50 in the test with NIH3T3 is 174 µg/mL (≈ 310 µM); in the test on HeLa it was over 200 µg/mL.
As to `N#Cc1c(-c2cccc(Br)c2)c(C#N)c(=O)n(/N=C/c2cn(-c3ccccc3)nc2-c2ccccc2)c1N`, the MIC was found to be 250 µg/mL (≈ 446 µM) against Pseudomonas aeruginosa, 250 µg/mL (≈ 446 µM) with Staphylococcus aureus, 500 µg/mL (≈ 892 µM) against Streptococcus pyogenes and 100 µg/mL (≈ 178 µM) in the test with Escherichia coli. Also, the 50% inhibitory concentration (IC50) in the test with NIH3T3 was 42 µg/mL (≈ 74.9 µM); with HeLa, over 200 µg/mL.
Take `N#Cc1c(-c2ccc(Br)cc2)c(C#N)c(=O)n(/N=C/c2cn(-c3ccccc3)nc2-c2ccccc2)c1N`: the MIC with Pseudomonas aeruginosa stood at 100 µg/mL (≈ 178 µM); in the test with Staphylococcus aureus, 12.5 µg/mL (≈ 22.3 µM); in the test with Streptococcus pyogenes, 100 µg/mL (≈ 178 µM); with Escherichia coli, 500 µg/mL (≈ 892 µM). Further, the IC50 in the test on NIH3T3 and with HeLa was over 200 µg/mL in each case.
As to `N#Cc1c(-c2ccccc2C(F)(F)F)c(C#N)c(=O)n(/N=C/c2cn(-c3ccccc3)nc2-c2ccccc2)c1N`, the MIC amounted to 250 µg/mL (≈ 455 µM) in the test on Pseudomonas aeruginosa, 100 µg/mL (≈ 182 µM) against Staphylococcus aureus, 250 µg/mL (≈ 455 µM) against Streptococcus pyogenes and 100 µg/mL (≈ 182 µM) against Escherichia coli. Moreover, the 50% inhibitory concentration (IC50) in the test with NIH3T3 was 56 µg/mL (≈ 102 µM); with HeLa, over 200 µg/mL.
Turning to `N#Cc1c(-c2ccc(C(F)(F)F)cc2)c(C#N)c(=O)n(/N=C/c2cn(-c3ccccc3)nc2-c2ccccc2)c1N`, the MIC is 25 µg/mL (≈ 45.5 µM) in the test on Pseudomonas aeruginosa, 25 µg/mL (≈ 45.5 µM) against Staphylococcus aureus, 250 µg/mL (≈ 455 µM) against Streptococcus pyogenes and 250 µg/mL (≈ 455 µM) with Escherichia coli. In addition, the IC50 with NIH3T3 and in the test with HeLa was over 200 µg/mL in each case.
With `N#Cc1c(-c2ccccc2)c(C#N)c(=O)n(/N=C/c2cn(-c3ccccc3)nc2-c2ccccc2)c1N`, the MIC in the test with Pseudomonas aeruginosa is 500 µg/mL (≈ 1040 µM); against Staphylococcus aureus it was 500 µg/mL (≈ 1040 µM); against Streptococcus pyogenes, 500 µg/mL (≈ 1040 µM); against Escherichia coli, 250 µg/mL (≈ 519 µM). The IC50 in the test with NIH3T3 was 180 µg/mL (≈ 374 µM); in the test with HeLa, over 200 µg/mL.
As to `N#Cc1c(-c2ccccc2O)c(C#N)c(=O)n(/N=C/c2cn(-c3ccccc3)nc2-c2ccccc2)c1N`, the MIC against Pseudomonas aeruginosa amounted to 500 µg/mL (≈ 1000 µM); in the test with Staphylococcus aureus it was 500 µg/mL (≈ 1000 µM); with Streptococcus pyogenes, 250 µg/mL (≈ 502 µM); in the test on Escherichia coli it was 500 µg/mL (≈ 1000 µM). Moreover, the IC50 with NIH3T3 is 162 µg/mL (≈ 326 µM); in the test on HeLa, over 200 µg/mL.
For `N#Cc1c(-c2ccc(O)cc2)c(C#N)c(=O)n(/N=C/c2cn(-c3ccccc3)nc2-c2ccccc2)c1N`, the MIC with Pseudomonas aeruginosa, with Staphylococcus aureus, against Streptococcus pyogenes and in the test on Escherichia coli was 500 µg/mL (≈ 1000 µM) each time. Besides, the IC50 in the test with NIH3T3 is 110 µg/mL (≈ 221 µM); in the test on HeLa, over 200 µg/mL.
Take `N#Cc1c(-c2ccccc2Cl)c(C#N)c(=O)n(/N=C/c2cn(-c3ccccc3)nc2-c2ccccc2)c1N`: the MIC in the test on Pseudomonas aeruginosa, against Staphylococcus aureus, in the test on Streptococcus pyogenes and in the test with Escherichia coli was 100 µg/mL (≈ 194 µM) each time. Moreover, the IC50 with NIH3T3 was 84 µg/mL (≈ 163 µM); in the test with HeLa it was over 200 µg/mL.
For `N#Cc1c(-c2cccc(Cl)c2)c(C#N)c(=O)n(/N=C/c2cn(-c3ccccc3)nc2-c2ccccc2)c1N`, the MIC with Pseudomonas aeruginosa turned out to be 250 µg/mL (≈ 485 µM); in the test on Staphylococcus aureus it was 500 µg/mL (≈ 969 µM); in the test on Streptococcus pyogenes, 100 µg/mL (≈ 194 µM); against Escherichia coli it was 50 µg/mL (≈ 96.9 µM). Moreover, the figures for the IC50 in the test on NIH3T3 and in the test on HeLa were 52 µg/mL (≈ 101 µM) and over 200 µg/mL, respectively.
With `N#Cc1c(-c2ccc(Cl)cc2)c(C#N)c(=O)n(/N=C/c2cn(-c3ccccc3)nc2-c2ccccc2)c1N`, the MIC is 500 µg/mL (≈ 969 µM) with Pseudomonas aeruginosa, 100 µg/mL (≈ 194 µM) against Staphylococcus aureus, 12.5 µg/mL (≈ 24.2 µM) in the test on Streptococcus pyogenes and 500 µg/mL (≈ 969 µM) with Escherichia coli. The results for the IC50 in the test on NIH3T3 and with HeLa were 64 µg/mL (≈ 124 µM) and over 200 µg/mL, respectively.
On to `N#Cc1c(-c2ccccc2F)c(C#N)c(=O)n(/N=C/c2cn(-c3ccccc3)nc2-c2ccccc2)c1N`, for which the MIC is 50 µg/mL (≈ 100 µM) in the test with Pseudomonas aeruginosa, 25 µg/mL (≈ 50 µM) against Staphylococcus aureus, 25 µg/mL (≈ 50 µM) in the test with Streptococcus pyogenes and 250 µg/mL (≈ 500 µM) with Escherichia coli. The IC50 with NIH3T3 and in the test on HeLa was over 200 µg/mL in each case.
As to `N#Cc1c(-c2cccc(F)c2)c(C#N)c(=O)n(/N=C/c2cn(-c3ccccc3)nc2-c2ccccc2)c1N`, the MIC in the test on Pseudomonas aeruginosa turned out to be 50 µg/mL (≈ 100 µM); with Staphylococcus aureus, 50 µg/mL (≈ 100 µM); against Streptococcus pyogenes, 50 µg/mL (≈ 100 µM); in the test on Escherichia coli, 100 µg/mL (≈ 200 µM). Moreover, the IC50 in the test with NIH3T3 was 154 µg/mL (≈ 308 µM); in the test on HeLa it was over 200 µg/mL.
With `N#Cc1c(-c2ccc(F)cc2)c(C#N)c(=O)n(/N=C/c2cn(-c3ccccc3)nc2-c2ccccc2)c1N`, the MIC in the test on Pseudomonas aeruginosa was 25 µg/mL (≈ 50 µM); with Staphylococcus aureus, 12.5 µg/mL (≈ 25 µM); in the test with Streptococcus pyogenes it was 100 µg/mL (≈ 200 µM); against Escherichia coli it was 12.5 µg/mL (≈ 25 µM). For the same compound, the IC50 in the test with NIH3T3 and in the test with HeLa was over 200 µg/mL each time.
Consider `Cc1ccc(-c2c(C#N)c(N)n(/N=C/c3cn(-c4ccccc4)nc3-c3ccccc3)c(=O)c2C#N)cc1`, for which the MIC in the test with Pseudomonas aeruginosa turned out to be 250 µg/mL (≈ 504 µM); in the test on Staphylococcus aureus it was 500 µg/mL (≈ 1010 µM); with Streptococcus pyogenes it was 250 µg/mL (≈ 504 µM); against Escherichia coli it was 500 µg/mL (≈ 1010 µM). Also, the IC50 in the test on NIH3T3 was 98 µg/mL (≈ 198 µM); with HeLa it was over 200 µg/mL.
For `COc1ccc(-c2c(C#N)c(N)n(/N=C/c3cn(-c4ccccc4)nc3-c3ccccc3)c(=O)c2C#N)cc1`, the MIC against Pseudomonas aeruginosa was found to be 500 µg/mL (≈ 977 µM); against Staphylococcus aureus, 500 µg/mL (≈ 977 µM); in the test with Streptococcus pyogenes, 250 µg/mL (≈ 489 µM); in the test on Escherichia coli, 500 µg/mL (≈ 977 µM). In addition, the figures for the IC50 in the test on NIH3T3 and with HeLa were 50 µg/mL (≈ 97.7 µM) and over 200 µg/mL, respectively.
With `COc1cc(-c2c(C#N)c(N)n(/N=C/c3cn(-c4ccccc4)nc3-c3ccccc3)c(=O)c2C#N)cc(OC)c1OC`, the MIC with Pseudomonas aeruginosa was determined as 250 µg/mL (≈ 437 µM); in the test with Staphylococcus aureus, 500 µg/mL (≈ 875 µM); in the test with Streptococcus pyogenes, 250 µg/mL (≈ 437 µM); against Escherichia coli, 500 µg/mL (≈ 875 µM). Moreover, the IC50 was 64 µg/mL (≈ 112 µM) in the test with NIH3T3 and over 200 µg/mL in the test with HeLa.
As to `N#Cc1c(-c2ccccc2[N+](=O)[O-])c(C#N)c(=O)n(/N=C/c2cn(-c3ccccc3)nc2-c2ccccc2)c1N`, the MIC came to 100 µg/mL (≈ 190 µM) against Pseudomonas aeruginosa, 25 µg/mL (≈ 47.5 µM) in the test with Staphylococcus aureus, 250 µg/mL (≈ 475 µM) in the test with Streptococcus pyogenes and 25 µg/mL (≈ 47.5 µM) in the test with Escherichia coli. For the same compound, the half-inhibitory concentration (IC50) in the test on NIH3T3 and in the test with HeLa was over 200 µg/mL in each case.
For `O=C(O)c1cn(C2CC2)c2cc(N3CCNCC3)c(F)cc2c1=O` [CIPROFLOXACIN], the MIC against Staphylococcus aureus was found to be 50 µg/mL (≈ 151 µM); against Streptococcus pyogenes, 50 µg/mL (≈ 151 µM); against Escherichia coli, 25 µg/mL (≈ 75.4 µM).
